Laboratory results reported in US9040707B2, “Bicyclic thiazoles as allosteric modulators of mGluR5 receptors” (Janssen Pharmaceutica NV, priority 2009, dated 2015).
pEC50: −log10 of the molar value.

Key:
human mGluR5a receptor [1] = biological target: T1, human mGluR5a receptor (Homo sapiens, UniProt P41594); assay: Functional Assay 3: as Functional Assay 2 but clone H12H; assay type: cell-based; conditions: for pEC50: glutamate EC20; for Emax: maximum average response at a single concentration
T1 construct: host or cells: HEK293A (monoclones H10H and H12H)
T1 sequence (P41594 21-1180 isoform P41594-2 limits assumed): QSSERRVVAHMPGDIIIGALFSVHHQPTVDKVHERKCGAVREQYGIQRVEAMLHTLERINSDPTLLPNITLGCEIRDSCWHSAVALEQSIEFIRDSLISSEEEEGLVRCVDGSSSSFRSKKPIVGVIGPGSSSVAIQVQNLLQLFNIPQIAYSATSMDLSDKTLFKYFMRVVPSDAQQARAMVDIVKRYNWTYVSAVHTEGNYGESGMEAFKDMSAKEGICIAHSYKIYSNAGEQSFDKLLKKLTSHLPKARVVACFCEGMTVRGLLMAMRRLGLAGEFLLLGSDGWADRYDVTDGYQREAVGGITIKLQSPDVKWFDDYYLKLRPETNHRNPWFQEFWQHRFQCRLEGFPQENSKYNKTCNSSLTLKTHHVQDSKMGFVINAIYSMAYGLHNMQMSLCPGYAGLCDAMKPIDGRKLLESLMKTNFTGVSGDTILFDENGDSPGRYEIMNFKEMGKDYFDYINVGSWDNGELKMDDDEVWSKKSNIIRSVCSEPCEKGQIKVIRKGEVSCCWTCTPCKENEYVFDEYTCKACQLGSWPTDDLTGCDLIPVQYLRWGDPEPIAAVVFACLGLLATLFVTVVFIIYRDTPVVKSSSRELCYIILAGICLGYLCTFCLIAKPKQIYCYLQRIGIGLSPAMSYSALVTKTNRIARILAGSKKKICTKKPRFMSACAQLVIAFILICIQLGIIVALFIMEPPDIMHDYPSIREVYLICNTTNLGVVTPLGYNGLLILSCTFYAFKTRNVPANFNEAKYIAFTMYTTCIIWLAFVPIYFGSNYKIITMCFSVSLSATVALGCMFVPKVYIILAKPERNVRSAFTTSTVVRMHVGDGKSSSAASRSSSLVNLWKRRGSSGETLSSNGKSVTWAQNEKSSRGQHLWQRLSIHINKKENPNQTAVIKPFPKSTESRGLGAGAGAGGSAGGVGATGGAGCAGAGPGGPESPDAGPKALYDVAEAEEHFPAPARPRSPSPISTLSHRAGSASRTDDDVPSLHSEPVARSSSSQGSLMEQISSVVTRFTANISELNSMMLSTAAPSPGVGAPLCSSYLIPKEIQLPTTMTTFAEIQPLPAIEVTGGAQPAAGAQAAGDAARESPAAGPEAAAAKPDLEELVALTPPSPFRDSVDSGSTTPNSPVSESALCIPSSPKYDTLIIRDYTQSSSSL
Description: (§1) HEK cells transfected with the human mGluR5a receptor (H10H cell line) were plated at 15.000 cells/well in clear-bottomed poly-D-lysine-coated assay plates (BD Falcon) in glutamate-glutamine-free growth medium and incubated overnight at 37° C. and 5% CO2. The following day, the growth medium was removed and the cells were washed with assay buffer containing 1× Hank's balanced salt solution (Invitrogen, Carlsbad, Calif.), 20 mM HEPES, 2.5 mM probenecid, pH 7.4 and left with 20 μL of this reagent. Following this step, the cells were loaded with calcium indicator dye, fluo-4 AM, to a final concentration of 2 μM and incubated for 40-45 min at 37° C. The dye solution was removed and replaced with assay buffer. Cell plates were held for 10-15 min at room temperature and were then loaded into the Functional Drug Screening System 6000 (FDSS 6000, Hamamatsu, Japan).
(§2) After establishment of a fluorescence baseline for about 3 seconds, the compounds of the present invention were added to the cells, and the response in cells was measured. 2.3 minutes later an EC20 concentration of the mGluR5 receptor agonist glutamate was added to the cells, and the response of the cells was measured for about 1.7 minutes. All test compounds were dissolved and diluted to a concentration of 10 mM in 100% DMSO and then serially diluted into assay buffer for a 2× stock solution in 0.6% DMSO; stock compounds were then added to the assay for a final DMSO concentration of 0.3% after the first addition to the assay well. Calcium fluorescence measures were recorded as fold over basal fluorescence; raw data was then normalized to the maximal response to glutamate. Potentiation of the agonist response of the mGluR5 receptor in the present invention was observed as an increase in response to submaximal concentrations of glutamate in the presence of compound compared to the response to glutamate in the absence of compound.
The concentration-response curves of compounds of the present invention, obtained in the presence of EC20 of mGluR5 receptor agonist glutamate to determine positive allosteric modulation, were generated using Microsoft Excel with IDBS XLfit add-ins. The raw data file containing all time points was used as the data source in the analysis template. This was saved by the FDSS as a tab-delimitted text file. Data were normalized using a static ratio function (F/F0) for each measurement of the total 350 values per well divided by each well's initial value. Data was then reduced as to peak amplitudes (Max−Initial Min) using a time range that starts approximately 1 second after the glutamate EC20 addition and continues for approximately 40 seconds. This is sufficient time to capture the peak amplitude of the cellular calcium response. Individual amplitudes were expressed as % effect by multiplying each amplitude by 100 and then dividing the product by the mean of the amplitudes derived from the glutamate ECMax-treated wells. pEC50 values for test compounds were generated by fitting the normalized values versus the log of the test compound concentration (in mol/L) using a 4 parameter logistic equation where none of the parameters were fixed. Each of the three values collected at each concentration of test compound were weighted evenly. Individual values falling outside the 95% prediction limits of the curve fit were automatically excluded from the fit. […] These two methods are in good agreement for curves with a clear plateau at the high concentration range. […] For consistency purposes across the range of potencies observed, all Emax values reported in this application are calculated using the maximum average response at a single concentration.
Functional Assay 3 was performed under the same conditions as Functional Assay 2, except that clone H12H was used instead of clone H10H.
The clones that were used in the primary functional assay gave undiscernable differences in this assay.

human mGluR5 receptor = biological target: T2, human mGluR5 receptor (Homo sapiens, UniProt P41594); assay: Functional Assay 1: intracellular Ca2+ mobilization, positive allosteric modulation of glutamate EC20 response; assay type: cell-based; conditions: for Emax: maximum % effect relative to glutamate ECMax
T2 construct: expressed in transfected cells; host or cells: HEK-293
T2 sequence (P41594 21-1180 isoform P41594-2 limits assumed): as above

human mGluR5a receptor [2] = biological target: T1, human mGluR5a receptor; assay: Functional Assay 2: Ca2+ mobilization, HEK cells with human mGluR5a receptor (H10H cell line); assay type: cell-based; conditions: H10H cell line; for pEC50: glutamate EC20; for Emax: HEK293, maximum average response at a single concentration, relative to glutamate ECMax
Description: Human mGluR5a cDNA in pCMV6-XL6 mammalian expression plasmid was purchased from OriGene Technologies, Inc. (catalogue number SC326357) and subcloned into pcDNA3.1(−). […] Monoclones were named for the species (“H” for human) plus the location on the plate (e.g. “10H”).
as §1, with “The” for “HEK cells transfected with the human mGluR5a receptor (H10H cell line) were plated at 15.000 cells/well in clear-bottomed poly-D-lysine-coated assay plates (BD Falcon) in glutamate-glutamine-free growth medium and incubated overnight at 37° C. and 5% CO2. The”
as §2, with “glutamate.” for “glutamate. Potentiation of the agonist response of the mGluR5 receptor in the present invention was observed as an increase in response to submaximal concentrations of glutamate in the presence of compound compared to the response to glutamate in the absence of compound.”
The concentration-response curves of compounds of the present invention, obtained in the presence of EC20 of mGluR5 receptor agonist glutamate to determine positive allosteric modulation, were generated using Microsoft Excel with IDBS XLfit add-ins. The raw data file containing all time points was used as the data source in the analysis template. This was saved by the FDSS as a tab-delimitted text file. Data were normalized using a static ratio function (F/F0) for each measurement of the total 350 values per well divided by each well's initial value. […] This is sufficient time to capture the peak amplitude of the cellular calcium response. […] Each of the three values collected at each concentration of test compound were weighted evenly. […] These two methods are in good agreement for curves with a clear plateau at the high concentration range.

[3] = human mGluR5 over-expressing HEK-293 cells, glutamate EC20 (~0.2 μM), updated value
[4] = original value, which was updated as compound was further tested

O=C1c2sc(COc3ccccc3)nc2CCN1c1ccc(F)cc1 [Compound 9, 5-(4-fluorophenyl)-6,7-dihydro-2-(phenoxymethyl)-thiazolo[5,4-c]pyridin-4(5H)-one]
pEC50 (human mGluR5a receptor [1]): 6.95 | Emax (human mGluR5a receptor [1]): 79%

O=C1c2sc(OCc3ccccc3)nc2CCN1c1ccc(F)cc1F [Compound 12, 5-(2,4-difluorophenyl)-6,7-dihydro-2-(phenylmethoxy)-thiazolo[5,4-c]pyridin-4(5H)-one]
melting point: 135 °C | pEC50 (human mGluR5 receptor; [3]): 5.71 | Emax (human mGluR5 receptor): 71% | pEC50 (human mGluR5 receptor; [4]): 6.26 | pEC50 (human mGluR5a receptor [2]): 6.74 | Emax (human mGluR5a receptor [2]): 67%

O=C1c2sc(OCc3ccccc3)nc2CCN1Cc1ccc(F)cc1 [Compound 14, 5-[(4-fluorophenyl)methyl]-6,7-dihydro-2-(phenylmethoxy)-thiazolo[5,4-c]pyridin-4(5H)-one]
melting point: 95.8 to 99 °C | pEC50 (human mGluR5 receptor; [3]): 5.29 | Emax (human mGluR5 receptor): 88% | pEC50 (human mGluR5 receptor; [4]): 5.35 | pEC50 (human mGluR5a receptor [2]): 5.65 | Emax (human mGluR5a receptor [2]): 52%

O=C1c2sc(OCc3ccccc3)nc2CCN1Cc1cccc(F)c1 [Compound 15, 5-[(3-fluorophenyl)methyl]-6,7-dihydro-2-(phenylmethoxy)-thiazolo[5,4-c]pyridin-4(5H)-one]
melting point: 80.1 to 82 °C | pEC50 (human mGluR5 receptor; [3]): 5.43 | Emax (human mGluR5 receptor): 67% | pEC50 (human mGluR5 receptor; [4]): 5.59 | pEC50 (human mGluR5a receptor [2]): 6.04 | Emax (human mGluR5a receptor [2]): 59%

O=C1c2sc(OCc3ccccc3)nc2CCN1Cc1ccccc1F [Compound 16, 5-[(2-fluorophenyl)methyl]-6,7-dihydro-2-(phenylmethoxy)-thiazolo[5,4-c]pyridin-4(5H)-one]
melting point: 77.4 to 79.2 °C | pEC50 (human mGluR5 receptor; [3]): 5.27 | Emax (human mGluR5 receptor): 88% | pEC50 (human mGluR5 receptor; [4]): 5.44 | pEC50 (human mGluR5a receptor [2]): 5.91 | Emax (human mGluR5a receptor [2]): 56%

O=C1c2sc(OCc3cccc(F)c3)nc2CCN1c1ccc(F)cc1F [Compound 17, 5-(2,4-difluorophenyl)-2-[(3-fluorophenyl)methoxy]-6,7-dihydro-thiazolo[5,4-c]pyridin-4(5H)-one]
melting point: 121.1 to 122.7 °C | pEC50 (human mGluR5 receptor; [3]): 6.16 | Emax (human mGluR5 receptor): 82% | pEC50 (human mGluR5 receptor; [4]): 6.13 | pEC50 (human mGluR5a receptor [2]): 6.53 | Emax (human mGluR5a receptor [2]): 61%

O=C1c2sc(OCc3ccccc3F)nc2CCN1c1ccc(F)cc1F [Compound 18, 5-(2,4-difluorophenyl)-2-[(2-fluorophenyl)methoxy]-6,7-dihydro-thiazolo[5,4-c]pyridin-4(5H)-one]
melting point: 78.9 to 80.7 °C | pEC50 (human mGluR5 receptor; [3]): 6.21 | Emax (human mGluR5 receptor): 76% | pEC50 (human mGluR5 receptor; [4]): 6.29 | pEC50 (human mGluR5a receptor [2]): 6.37 | Emax (human mGluR5a receptor [2]): 72%

O=C1c2sc(OCc3cccc(F)c3)nc2CCN1c1cccc(F)c1 [Compound 27, 5-(3-fluorophenyl)-2-[(3-fluorophenyl)methoxy]-6,7-dihydro-thiazolo[5,4-c]pyridin-4(5H)-one]
melting point: 111.3 to 111.9 °C | pEC50 (human mGluR5 receptor; [3]): 6.96 | Emax (human mGluR5 receptor): 57%

O=C1c2sc(COc3cccc(F)c3)nc2CCN1c1ccc(F)cc1F [Compound 28, 5-(2,4-difluorophenyl)-2-[(3-fluorophenoxy)methyl]-6,7-dihydro-thiazolo[5,4-c]pyridin-4(5H)-one]
pEC50 (human mGluR5a receptor [1]): 7.07 | Emax (human mGluR5a receptor [1]): 63%

C[C@@H](N1CCc2nc(COc3ccccc3)sc2C1=O)C(C)(C)C [Compound 35, 6,7-dihydro-2-(phenoxymethyl)-5-[(1R)-1,2,2-trimethylpropyl]-thiazolo[5,4-c]pyridin-4(5H)-one]
pEC50 (human mGluR5a receptor [1]): 6.10 | Emax (human mGluR5a receptor [1]): 60%

O=C1c2sc(COc3ccc(Cl)cc3)nc2CCN1c1ccc(F)cc1 [Compound 60, 2-[(4-chlorophenoxy)methyl]-5-(4-fluorophenyl)-6,7-dihydro-thiazolo[5,4-c]pyridin-4(5H)-one]
melting point: 186.9 °C | pEC50 (human mGluR5 receptor; [3]): < 4.52 | Emax (human mGluR5 receptor): 28%

O=C1c2sc(OCc3ccc(F)c(F)c3)nc2CCN1c1ccc(F)cc1F [Compound 74, 5-(2,4-difluorophenyl)-2-[(3,4-difluorophenyl)methoxy]-6,7-dihydro-thiazolo[5,4-c]pyridin-4(5H)-one]
melting point: 136.9 to 137.2 °C | pEC50 (human mGluR5 receptor; [3]): < 4.52 | Emax (human mGluR5 receptor): 32%

N#Cc1ccc(COc2nc3c(s2)C(=O)N(c2ccc(F)cc2F)CC3)cc1 [Compound 75, 4-[[[5-(2,4-difluorophenyl)-4,5,6,7-tetrahydro-4-oxothiazolo[5,4-c]pyridin-2-yl]oxy]methyl]-benzonitrile]
melting point: 180.9 to 183.1 °C | pEC50 (human mGluR5 receptor; [3]): < 4.52 | Emax (human mGluR5 receptor): 19%

N#Cc1ccccc1COc1nc2c(s1)C(=O)N(c1ccc(F)cc1F)CC2 [Compound 76, 2-[[[5-(2,4-difluorophenyl)-4,5,6,7-tetrahydro-4-oxothiazolo[5,4-c]pyridin-2-yl]oxy]methyl]-benzonitrile]
melting point: 166.1 to 168.3 °C | pEC50 (human mGluR5 receptor; [3]): < 4.52 | Emax (human mGluR5 receptor): 19%

O=C1c2sc(OCc3ccc(C(F)(F)F)cc3)nc2CCN1c1ccc(F)cc1F [Compound 78, 5-(2,4-difluorophenyl)-6,7-dihydro-2-[[4-(trifluoromethyl)phenyl]methoxy]-thiazolo[5,4-c]pyridin-4(5H)-one]
melting point: > 280 °C | pEC50 (human mGluR5 receptor; [3]): < 4.52 | Emax (human mGluR5 receptor): 27%

COc1ccccc1COc1nc2c(s1)C(=O)N(c1ccc(F)cc1F)CC2 [Compound 79, 5-(2,4-difluorophenyl)-6,7-dihydro-2-[(2-methoxyphenyl)methoxy]-thiazolo[5,4-c]pyridin-4(5H)-one]
melting point: > 280 °C | pEC50 (human mGluR5 receptor; [3]): < 4.52 | Emax (human mGluR5 receptor): 21%

O=C1c2sc(OCc3ccccc3C(F)(F)F)nc2CCN1c1ccc(F)cc1F [Compound 81, 5-(2,4-difluorophenyl)-6,7-dihydro-2-[[2-(trifluoromethyl)phenyl]methoxy]-thiazolo[5,4-c]pyridin-4(5H)-one]
melting point: > 280 °C | pEC50 (human mGluR5 receptor; [3]): < 4.52 | Emax (human mGluR5 receptor): 25%
